# Measurements as given in patent publication US10131652B2, “Pyrimidinyloxy benzene derivatives as herbicides” (E. I. DU PONT DE NEMOURS AND COMPANY, priority 2014, dated 2018).
# What was measured:
# Type in all cases: in vivo
# [1] = system: small-flower umbrella sedge (Cyperus difformis); test: Test C flooded paddy test plant response; settings: Flood, 250 g ai/ha; scale of 0 to 100 where 0 is no effect and 100 is complete control; 13 to 15 days
# Procedure, shortened: (§1)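 Readout is a visual 0–100 score (100 = complete control) versus controls at 13–15 days. Plants at 2-leaf stage, flooded to 3 cm, treated through paddy water.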
# rice (Oryza sativa) = test: Test C flooded paddy test plant response; settings: Flood, 250 g ai/ha; scale of 0 to 100 where 0 is no effect and 100 is complete control; 13 to 15 days
# Procedure, shortened: as §1
# [2] = system: barnyardgrass (Echinochloa crus-galli); test: Test C flooded paddy test plant response; settings: Flood, 250 g ai/ha; scale of 0 to 100 where 0 is no effect and 100 is complete control; 13 to 15 days
# Procedure, shortened: as §1
# [3] = system: ducksalad (Heteranthera limosa); test: Test C flooded paddy test plant response; settings: Flood, 250 g ai/ha; scale of 0 to 100 where 0 is no effect and 100 is complete control; 13 to 15 days
# Procedure, shortened: as §1
# [4] = system: ragweed (common ragweed, Ambrosia elatior); test: Test B pre-/postemergence plant response
# Procedure, shortened: (§2)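 Seeds in loam–sand blend given preemergence soil spray; separately, plants at one- to two-leaf stage (2–10 cm) sprayed postemergence, compounds in non-phytotoxic solvent with surfactant. Injury rated visually versus untreated controls after ~10 days in greenhouse, 0 (no effect) to 100 (complete control).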
# kochia (Kochia scoparia) = test: Test B pre-/postemergence plant response
# Procedure, shortened: as §2
# [5] = system: Italian ryegrass (Lolium multiflorum); test: Test B pre-/postemergence plant response
# Procedure, shortened: as §2
# [6] = system: velvetleaf (Abutilon theophrasti); test: Test D pre-/postemergence plant response
# Procedure, shortened: (§3)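 Preemergence: seeds in loam/sand blend treated with test chemicals in non-phytotoxic solvent with surfactant; postemergence: plants at 2–18 cm (1- to 4-leaf stage) in peat-based medium sprayed likewise. Greenhouse 13 to 15 days, then visual rating vs controls, 0 (no effect) to 100 (complete control).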
# [7] = system: giant foxtail (Setaria faberii); test: Test D pre-/postemergence plant response
# Procedure, shortened: as §3
# [8] = system: barnyardgrass (Echinochloa crus-galli); test: Test D pre-/postemergence plant response
# Procedure, shortened: as §3
# [9] = system: pigweed (Amaranthus retroflexus); test: Test D pre-/postemergence plant response
# Procedure, shortened: as §3
# [10] = system: blackgrass (Alopecurus myosuroides); test: Test D pre-/postemergence plant response
# Procedure, shortened: as §3
# [11] = system: oilseed rape (Brassica napus); test: Test D pre-/postemergence plant response
# Procedure, shortened: as §3
# [12] = system: johnsongrass (Sorghum halepense); test: Test D pre-/postemergence plant response
# Procedure, shortened: as §3
# [13] = 125 g ai/ha, postemergence, 0 to 100 scale, 0 no effect, 100 complete control
# [14] = Postemergence, 500 g ai/ha, 0 to 100 scale (0 no effect, 100 complete control)
# [15] = Preemergence, 125 g ai/ha, 0 to 100 scale where 0 is no effect and 100 is complete control
# [16] = Preemergence, 500 g ai/ha, 0 to 100 scale where 0 is no effect and 100 is complete control
# [17] = Postemergence, 16 g ai/ha, scale 0 to 100 (0 no effect, 100 complete control)
# [18] = Postemergence, 31 g ai/ha, scale 0 to 100 (0 no effect, 100 complete control)
# [19] = Postemergence, 62 g ai/ha, scale 0 to 100, 0 no effect, 100 complete control
# [20] = Postemergence, 125 g ai/ha, scale 0 to 100, 0 no effect, 100 complete control
# [21] = Preemergence, 16 g ai/ha, scale 0 to 100 (0 no effect, 100 complete control)
# [22] = Preemergence, 31 g ai/ha, scale 0 to 100 (0 no effect, 100 complete control)
# [23] = Preemergence, 62 g ai/ha, scale 0 to 100 (0 no effect, 100 complete control)
smiles,measurement,setting,value
FC(F)(F)c1cc(-c2ccccc2Oc2ncc(Cl)cn2)ncn1 [Compound 54],"Sedge, Umbrella plant response rating",[1],0
same,Rice plant response rating,rice (Oryza sativa),0
same,Barnyardgrass plant response rating,[2],0
same,Ducksalad plant response rating,[3],60
same,"Plant response rating, Ragweed",[4]; [13],50
same,"Plant response rating, Ragweed",[4]; [14],60
same,"Plant response rating, Ragweed",[4]; [15],60
same,"Plant response rating, Ragweed",[4]; [16],70
same,"Plant response rating, Kochia",kochia (Kochia scoparia); [13],100
same,"Plant response rating, Kochia",kochia (Kochia scoparia); [14],100
same,"Plant response rating, Kochia",kochia (Kochia scoparia); [15],80
same,"Plant response rating, Kochia",kochia (Kochia scoparia); [16],100
same,"Plant response rating, Ryegrass, Italian",[5]; [13],30
same,"Plant response rating, Ryegrass, Italian",[5]; [14],60
same,"Plant response rating, Ryegrass, Italian",[5]; [15],30
same,"Plant response rating, Ryegrass, Italian",[5]; [16],60
same,Velvetleaf plant response rating,[6]; [17],0
same,Velvetleaf plant response rating,[6]; [18],5
same,"Plant response rating, Velvetleaf",[6]; [19],40
same,"Plant response rating, Velvetleaf",[6]; [20],40
same,"Plant response rating (scale 0 to 100), Velvetleaf","[6]; Preemergence, 125 g ai/ha",100
same,"Plant response rating, Velvetleaf",[6]; [21],15
same,"Plant response rating, Velvetleaf",[6]; [22],70
same,"Plant response rating, Velvetleaf",[6]; [23],85
same,"Foxtail, Giant plant response rating",[7]; [17],0
same,"Foxtail, Giant plant response rating",[7]; [18],30
same,"Plant response rating, Foxtail, Giant",[7]; [19],10
same,"Plant response rating, Foxtail, Giant",[7]; [20],50
same,"Plant response rating (scale 0 to 100), Foxtail, Giant","[7]; Preemergence, 125 g ai/ha",95
same,"Plant response rating, Foxtail, Giant",[7]; [21],0
same,"Plant response rating, Foxtail, Giant",[7]; [22],10
same,"Plant response rating, Foxtail, Giant",[7]; [23],95
same,Barnyardgrass plant response rating,[8]; [17],0
same,Barnyardgrass plant response rating,[8]; [18],5
same,"Plant response rating, Barnyardgrass",[8]; [19],5
same,"Plant response rating, Barnyardgrass",[8]; [20],10
same,"Plant response rating (scale 0 to 100), Barnyardgrass","[8]; Preemergence, 62 g ai/ha",10
same,"Plant response rating (scale 0 to 100), Barnyardgrass","[8]; Preemergence, 125 g ai/ha",95
same,"Plant response rating, Barnyardgrass",[8]; [21],0
same,"Plant response rating, Barnyardgrass",[8]; [22],5
same,Pigweed plant response rating,[9]; [17],60
same,Pigweed plant response rating,[9]; [18],80
same,"Plant response rating, Pigweed",[9]; [19],80
same,"Plant response rating, Pigweed",[9]; [20],60
same,"Plant response rating (scale 0 to 100), Pigweed","[9]; Preemergence, 125 g ai/ha",100
same,"Plant response rating, Pigweed",[9]; [21],5
same,"Plant response rating, Pigweed",[9]; [22],100
same,"Plant response rating, Pigweed",[9]; [23],100
same,Blackgrass plant response rating,[10]; [17],0
same,Blackgrass plant response rating,[10]; [18],5
same,"Plant response rating, Blackgrass",[10]; [19],5
same,"Plant response rating, Blackgrass",[10]; [20],5
same,"Plant response rating (scale 0 to 100), Blackgrass","[10]; Preemergence, 125 g ai/ha",70
same,"Plant response rating, Blackgrass",[10]; [21],5
same,"Plant response rating, Blackgrass",[10]; [22],5
same,"Plant response rating, Blackgrass",[10]; [23],40
same,Oilseed Rape plant response rating,[11]; [17],5
same,Oilseed Rape plant response rating,[11]; [18],20
same,"Plant response rating, Oilseed Rape",[11]; [19],50
same,"Plant response rating, Oilseed Rape",[11]; [20],60
same,"Plant response rating (scale 0 to 100), Oilseed Rape","[11]; Preemergence, 125 g ai/ha",100
same,"Plant response rating, Oilseed Rape",[11]; [21],60
same,"Plant response rating, Oilseed Rape",[11]; [22],85
same,"Plant response rating, Oilseed Rape",[11]; [23],100
same,Johnsongrass plant response rating,[12]; [17],0
same,Johnsongrass plant response rating,[12]; [18],0
same,"Plant response rating, Johnsongrass",[12]; [19],5
same,"Plant response rating, Johnsongrass",[12]; [20],5
same,"Plant response rating (scale 0 to 100), Johnsongrass","[12]; Preemergence, 125 g ai/ha",40
same,"Plant response rating, Johnsongrass",[12]; [21],0
same,"Plant response rating, Johnsongrass",[12]; [22],0
same,"Plant response rating, Johnsongrass",[12]; [23],10
